The text below walks through data of US20050130134A1, “Means and methods for monitoring non-nucleoside reverse transcriptase inhibitor antiretroviral therapy and guiding therapeutic decisions in the treatment HIV-AIDS” (ViroLogic, Inc., priority 2000, published 2005).

Molecules are shown by their SMILES. “Also recorded” adds a separate entry of the source.

Assay [1] deals with HIV reverse transcriptase mutation at codon 230 alone or in combination with codon 181. As to the kind of experiment: Phenotypic susceptibility assay, mutation at codon 230 alone or with codon 181. Type of assay: cell-based.
Assay [2] has as its system HIV-1 reverse transcriptase P225H plus K103N, Y181C or both. As to the kind of experiment: Phenotypic susceptibility assay, P225H with K103N, Y181C or K103N+Y181C. It is filed as cell-based. The settings on record: P225H added to K103N, Y181C or K103N+Y181C versus corresponding RTV lacking P225H. The method, then:
(§1) Transfections were performed using a calcium-phosphate precipitation procedure. […] Cell lysates were assayed for luciferase activity (FIG. 3). […] The drug inhibition curves are shown in (FIG. 3).
Resistance test vectors were constructed containing the P225H mutation alone and in combination with other known drug resistance mutations (K103N, Y181C) known to modulate the HIV susceptibility to NNRTIs. […] (Sakar G and Sommar S S (1994) Biotechniques 8(4), 404-407). […] The P225H mutation was also introduced into a RTV containing additional mutations at K103N, Y181C or both (K103N+Y181C).

The target in assay [3] is RT with P236L substitution (Human immunodeficiency virus type 1 group M subtype B, UniProt P04585, P823L). The settings on record: cited from earlier work; for previously reported effect of the P236L mutation: Dueweke et al. 1993.
In assay [4] the test system is RTV-955 patient virus (RT K101E, K103N, Y181C, G190A mixtures). As to the kind of experiment: Phenotypic susceptibility assay, RTV-955 (patient 98-955). Type of assay: cell-based, HIV-1. The method, then: as §1
This patient had been previously treated with nelfinavir (a PR1).

Assay [5] relates to RTV-1057 patient virus (RT A98G, Y181C). As to the kind of experiment: Phenotypic susceptibility assay, RTV-1057 (patient 98-1057). Type of assay: cell-based, HIV-1. The protocol: as §1
The test system of assay [6] is patient 780 virus (RT K103N, P225H). As to the kind of experiment: Phenotypic susceptibility assay, patient 780 (FIG. 8B). It is filed as cell-based, HIV. The method, then: Phenotypic Drug Susceptibility and Resistance Profile: Patients 780. This is a second example of the third pattern of NNRTI susceptibility/resistance.
as §1

The test system of assay [7] is RTV-1058 clone 10 (RT L100I, K103N, Y188L). As to the kind of experiment: Phenotypic susceptibility assay, RTV-1058 clone 10. It is filed as cell-based, HIV-1. The protocol:
as §1

The test system of assay [8] is RTV-300 patient virus (RT K32N, M184V, Y188L). As to the kind of experiment: Phenotypic susceptibility assay, RTV-300 (patient 97-300). Type of assay: cell-based, HIV-1. The method, then: as §1
This patient had been previously treated with d4T and 3TC (NRTIs), indinavir (a PR1) and efavirenz (an NNRTI).

Assay [9] has as its system RTV-1058 clone 5 (RT L100I, K103N). As to the kind of experiment: Phenotypic susceptibility assay, RTV-1058 clone 5. It is filed as cell-based, HIV-1. The protocol:
as §1

Assay [10] concerns RTV-209 patient virus (RT E138A, Y188L). As to the kind of experiment: Phenotypic susceptibility assay, RTV-209 (patient 97-209). It is filed as cell-based, HIV-1. The method, then:
as §1
This patient had been previously treated with AZT, ddI, d4T and 3TC (NRTIs), indinavir (a PRIs) and adefovir. […].

In assay [11] the test system is patient 302 virus clones K103N, P225H versus K103N, I135M, R211K. The settings on record: patient 302 clones with versus without P225H, FIG. 8C. The method, then: Resistance tests were carried out with resistance test vectors using two host cell types. Resistance test vector viral particles were produced by a first host cell (the resistance test vector host cell) that was prepared by transfecting a packaging host cell with the resistance test vector and the packaging expression vector. The resistance test vector viral particles were then used to infect a second host cell (the target host cell) in which the expression of the indicator gene is measured.
The resistance test vectors containing a functional luciferase gene cassette were constructed and host cells were transfected with the resistance test vector DNA. The resistant test vectors contained patient-derived reverse transcriptase and protease sequences that were either susceptible or resistant to the antiretroviral agents, such as nucleoside reverse transcriptase inhibitors, non-nucleoside reverse transcriptase inhibitors and protease inhibitors. The resistance test vector viral particles produced by transfecting the resistance test vector DNA into host cells, either in the presence or absence of protease inhibitors, were used to infect target host cells grown either in the absence of NRTI or NNRTI or in the presence of increasing concentrations of the drug. The amount of luciferase activity produced in infected target host cells in the presence of drug was compared to the amount of luciferase produced in infected target host cells in the absence of drug. Drug resistance was measured as the amount of drug required to inhibit by 50% the luciferase activity detected in the absence of drug (inhibitory concentration 50%, IC50). The IC50 values were determined by plotting percent drug inhibition vs. log10 drug concentration.
Host cells were seeded in 10-cm-diameter dishes and were transfected several days after plating with resistance test vector plasmid DNA and the envelope expression vector. Transfections were performed using a calcium-phosphate precipitation procedure. The cell culture media containing the DNA precipitate was replaced with fresh medium, from one to 24 hours, after transfection. Cell culture media containing resistance test vector viral particles was harvested one to four days after transfection and was passed through a […] filter before being stored at −80° C. HIV capsid protein (p24) levels in the harvested cell culture media were determined by an EIA method as described by the manufacturer (SIAC; Frederick, Md.). Before infection, target cells (293 and 293/T) were plated in cell culture media. Control infections were performed using cell culture media from mock transfections (no DNA) or transfections containing the resistance test vector plasmid DNA without the envelope expression plasmid. One to three or more days after infection the media was removed and cell lysis buffer (Promega) was added to each well. […] The inhibitory effect of the drug was determined using the following equation: % luciferase inhibition=1-(RLUluc[drug]÷RLUluc)×100 where RLUluc [drug] is the relative light unit of luciferase activity in infected cells in the presence of drug and RLUluc is the Relative Light Unit of luciferase activity in infected cells in the absence of drug. IC50 values were obtained from the sigmoidal curves that were generated from the data by plotting the percent inhibition of luciferase activity vs. the log10 drug concentration.

The subject of assay [12] is RTV-302 patient virus (RT K103N, I135M, T200A, P225H). As to the kind of experiment: Phenotypic susceptibility assay, RTV-302 (patient 97-302). Type of assay: cell-based, HIV-1. The protocol: as §1
This patient had been treated with d4T, indinavir and DMP-266 for a period of approximately 10 months. […] An IC50 was determined for each drug tested. Susceptibility of the patient virus to each drug was examined and compared to known patterns of susceptibility. […] Patient sample 97-302 was examined further for genotypic changes associated with the observed pattern of susceptibility.

Assay [13] has as its system RTV-757 patient virus (RT V106A, V108I, V189L). As to the kind of experiment: Phenotypic susceptibility assay, RTV-757 (patient 98-757). It is filed as cell-based, HIV-1. The settings on record: RTV-757 patient virus (same patient as RTV-1033, later time point). The method, then:
as §1

For assay [14], the system named is RTV-1058 clone 4 (RT K103N, Y188L). As to the kind of experiment: Phenotypic susceptibility assay, RTV-1058 clone 4. Type of assay: cell-based, HIV-1. The protocol: as §1

Consider `CC(C)Nc1cccnc1N1CCN(C(=O)c2cc3cc(NS(C)(=O)=O)ccc3[nH]2)CC1` [delavirdine], for which the “change in susceptibility” value was “significant decrease” in assay [1], “more susceptible to inhibition; also recorded: increase; also recorded: decreases the amount of delavirdine resistance” in [2], “reduced susceptibility” in assay [6] and “modest decrease; also recorded: reduced susceptibility” in [12]. Further, the “previously reported effect of the P236L mutation” value in assay [3] is “delavirdine resistance”. The decrease in susceptibility is listed as 4 fold in assay [4]; 35 fold in [5]; 25 fold in assay [8]; 75 fold in [10]; 10 fold in [13]. In addition, the loss of susceptibility entry in [7] is given as “greater than 250 fold”; in assay [9], 250 fold; in [14] it was 85 fold. Further, the “effect of P225H on resistance associated with K103N” value in assay [11] was “reduces the amount delavirdine resistance”.

For `Cc1ccnc2c1NC(=O)c1cccnc1N2C1CC1` [nevirapine], the “change in susceptibility” value in [1] is “significant decrease”; in [2], “did not significantly change; also recorded: little or no change; also recorded: does not decrease the amount of nevirapine resistance”; in assay [6], “reduced susceptibility”; in [12], “significant decrease; also recorded: reduced susceptibility”. For the same molecule, the “reduction of IC50” value in assay [3] (P236L substitution) was 7 to 10 fold. In addition, the “previously reported effect of the P236L mutation” value in assay [3] is “nevirapine hypersensitivity”. Further, the decrease in susceptibility in [4] is listed as 530 fold; in [5], 610 fold; in assay [8], “greater than 800 fold”; in assay [10], “greater than 800 fold”; in assay [13] it was “greater than 800 fold”. The loss of susceptibility result in assay [7] is listed as “greater than 800 fold”; in assay [9], 120 fold; in [14], “greater than 800 fold”. In assay [11], the “effect of P225H on resistance associated with K103N” value was “does not alter the amount of nevirapine resistance”.
